# Data from the NIST ThermoML archive (doi:10.1016/j.fluid.2015.05.002).
# Numbers after ± are expanded uncertainties.
# Conditions: Liquid; for mass density: 295 K, 101.33 kPa, Vibrating tube method; for vapor or sublimation pressure: Closed cell (Static) method
compound,measurement,setting,value
"CC(C)CC(C)(C)C [2,2,4-trimethylpentane]",mass density,,690.4 ± 0.2 kg/m3
same,vapor or sublimation pressure,388.02 K,163 ± 1 kPa
same,vapor or sublimation pressure,392.98 K,184 ± 1 kPa
same,vapor or sublimation pressure,398.09 K,208 ± 1 kPa
same,vapor or sublimation pressure,403.09 K,233 ± 1 kPa
same,vapor or sublimation pressure,408.08 K,262 ± 1 kPa
same,vapor or sublimation pressure,413.12 K,293 ± 1 kPa
same,vapor or sublimation pressure,418.11 K,326 ± 1 kPa
same,vapor or sublimation pressure,423.15 K,362 ± 1 kPa
same,vapor or sublimation pressure,428.13 K,401 ± 1 kPa
same,vapor or sublimation pressure,433.09 K,442 ± 1 kPa
same,vapor or sublimation pressure,438.15 K,488 ± 1 kPa
same,vapor or sublimation pressure,443.1 K,536 ± 1 kPa
same,vapor or sublimation pressure,448.13 K,589 ± 1 kPa
same,vapor or sublimation pressure,453.09 K,644 ± 1 kPa
same,vapor or sublimation pressure,458.11 K,704 ± 2 kPa
same,vapor or sublimation pressure,463.05 K,769 ± 2 kPa
same,vapor or sublimation pressure,468.08 K,837 ± 2 kPa
same,vapor or sublimation pressure,473.08 K,911 ± 2 kPa
same,vapor or sublimation pressure,483.1 K,1072 ± 2 kPa
same,vapor or sublimation pressure,493.14 K,1255 ± 2 kPa
same,vapor or sublimation pressure,503.18 K,1459 ± 2 kPa
same,vapor or sublimation pressure,508.17 K,1571 ± 3 kPa
Cc1ccco1 [2-methylfuran],mass density,,916.7 ± 0.4 kg/m3
same,vapor or sublimation pressure,353.1 K,167 ± 1 kPa
same,vapor or sublimation pressure,358.07 K,194 ± 1 kPa
same,vapor or sublimation pressure,363.06 K,224 ± 1 kPa
same,vapor or sublimation pressure,368.02 K,257 ± 1 kPa
same,vapor or sublimation pressure,372.97 K,294 ± 2 kPa
same,vapor or sublimation pressure,377.98 K,334 ± 2 kPa
same,vapor or sublimation pressure,382.99 K,379 ± 2 kPa
same,vapor or sublimation pressure,387.96 K,427 ± 2 kPa
same,vapor or sublimation pressure,392.97 K,480 ± 2 kPa
same,vapor or sublimation pressure,397.93 K,538 ± 2 kPa
same,vapor or sublimation pressure,402.98 K,600 ± 2 kPa
same,vapor or sublimation pressure,407.95 K,670 ± 3 kPa
same,vapor or sublimation pressure,412.96 K,743 ± 3 kPa
same,vapor or sublimation pressure,417.96 K,823 ± 3 kPa
same,vapor or sublimation pressure,422.94 K,909 ± 3 kPa
same,vapor or sublimation pressure,427.97 K,1001 ± 4 kPa
same,vapor or sublimation pressure,432.93 K,1099 ± 4 kPa
same,vapor or sublimation pressure,437.97 K,1206 ± 4 kPa
same,vapor or sublimation pressure,442.93 K,1319 ± 5 kPa
same,vapor or sublimation pressure,447.95 K,1442 ± 5 kPa
same,vapor or sublimation pressure,452.97 K,1571 ± 6 kPa
same,vapor or sublimation pressure,457.97 K,1710 ± 6 kPa
same,vapor or sublimation pressure,462.96 K,1856 ± 7 kPa
same,vapor or sublimation pressure,467.96 K,2013 ± 7 kPa
same,vapor or sublimation pressure,472.97 K,2179 ± 8 kPa
same,vapor or sublimation pressure,482.96 K,2541 ± 9 kPa
same,vapor or sublimation pressure,492.93 K,2947 ± 10 kPa
same,vapor or sublimation pressure,502.93 K,3403 ± 12 kPa
same,vapor or sublimation pressure,507.92 K,3651 ± 13 kPa
CC1CCCO1 (stereo not given) [2-methyltetrahydrofuran],mass density,,851.6 ± 0.2 kg/m3
same,vapor or sublimation pressure,368.95 K,163 ± 1 kPa
same,vapor or sublimation pressure,372.89 K,181 ± 1 kPa
same,vapor or sublimation pressure,377.88 K,207 ± 1 kPa
same,vapor or sublimation pressure,382.89 K,237 ± 1 kPa
same,vapor or sublimation pressure,387.86 K,268 ± 1 kPa
same,vapor or sublimation pressure,392.93 K,304 ± 1 kPa
same,vapor or sublimation pressure,398.03 K,344 ± 1 kPa
same,vapor or sublimation pressure,403.02 K,386 ± 1 kPa
same,vapor or sublimation pressure,408.05 K,432 ± 1 kPa
same,vapor or sublimation pressure,413.07 K,483 ± 1 kPa
same,vapor or sublimation pressure,418.08 K,538 ± 1 kPa
same,vapor or sublimation pressure,423.11 K,597 ± 2 kPa
same,vapor or sublimation pressure,428.18 K,661 ± 2 kPa
same,vapor or sublimation pressure,433.16 K,730 ± 2 kPa
same,vapor or sublimation pressure,438.19 K,804 ± 2 kPa
same,vapor or sublimation pressure,443.19 K,883 ± 2 kPa
same,vapor or sublimation pressure,448.17 K,968 ± 2 kPa
same,vapor or sublimation pressure,453.22 K,1060 ± 2 kPa
same,vapor or sublimation pressure,458.19 K,1157 ± 2 kPa
same,vapor or sublimation pressure,463.25 K,1262 ± 3 kPa
same,vapor or sublimation pressure,468.25 K,1372 ± 3 kPa
same,vapor or sublimation pressure,473.2 K,1489 ± 3 kPa
same,vapor or sublimation pressure,483.25 K,1746 ± 3 kPa
same,vapor or sublimation pressure,493.28 K,2035 ± 4 kPa
same,vapor or sublimation pressure,503.24 K,2358 ± 4 kPa
same,vapor or sublimation pressure,508.21 K,2532 ± 5 kPa
